What was measured:
[1] = Local tolerance test: s.c. injection of bisphosphonate solution pH 7.4 with and without chelating agent, swelling score and diameter of subcutaneous lesions at necropsy; details: for adverse local reaction at the application sites: additional bivalent cation chelator in bisphosphonate formulation, compared with corresponding formulation without chelator; for severity of subcutaneous findings at necropsy / intensity and duration of local swelling at the injection site: chelating agent in injectable formulations of alendronate or ibandronate; for severity of subcutaneous findings at necropsy: necropsy after 9 days; for intensity and duration of local swelling at the injection site: observed over 9 days
Procedure: (§1) Groups of 3 rats were treated with test formulations containing 1 mg ibandronate/ml physiological saline buffered at pH 7.4. One group of rats received the test formulation without any additional additive, another group received the test solution with 1 mg EDTA/ml as an additive. The back of the rat was shaved one day before treatment. A volume of 0.5 ml each was injected subcutaneously at three different sites of the right part of shaved back. The left side of the back was treated with the corresponding formulation without ibandronate (placebo). Local reactions were assessed by a scoring system for swelling: 0=no reaction, 0.5=barely perceptible swelling, 1=slight swelling, 2=moderate swelling, 3=marked swelling, 4=severe swelling. The animals were observed over 9 days and thereafter necropsied. At necropsy, the diameter of subcutaneous lesions, mainly consisting of reddening or swelling, was measured.
(§2) The same study design as described in example 1 was applied to examine the concentration dependence of the EDTA effect. EDTA was added at concentrations of 0.1, 1.0 and 10 mg/ml.
(§3) DTPA was added at a concentration of 10 mg/ml.
(§4) The same study design as described in example 1 was applied to examine the efficacy of EDTA on local reaction to s.c. injected alendronate. The test formulations contained 3 mg alendronate/ml physiological saline buffered at pH 7.4. EDTA was added at a concentration of 10 mg/ml.

[2] = rat, in vivo, pH 7.4
Procedure: as §1, §2, §3, §4

| SMILES | efficacy of DTPA as chelating agent on local reaction ([1]; 1 mg ibandronate/ml pH 7.4, DTPA 10 mg/ml, s.c.) | adverse local reaction at the application sites [1] | severity of subcutaneous findings at necropsy ([1]; s.c.) | intensity and duration of local swelling at the injection site ([1]; s.c.) | improving effect of EDTA on local tolerance (dose dependence) [2] | effect on local adverse reactions at lowest ratio ([1]; 1 mg ibandronate/ml pH 7.4, molar ibandronate to EDTA ratio 1:0.1 (EDTA 0.1 mg/ml)) | local adverse reactions at highest ratio ([1]; 1 mg ibandronate/ml pH 7.4, molar ibandronate to EDTA ratio 1:10 (EDTA 10 mg/ml)) | effect of EDTA on alendronate induced local reaction ([1]; 3 mg alendronate/ml physiological saline pH 7.4, EDTA 10 mg/ml, s.c.) |
| --- | --- | --- | --- | --- | --- | --- | --- | --- |
| O=C(O)CN(CCN(CC(=O)O)CC(=O)O)CCN(CC(=O)O)CC(=O)O [DTPA, diethylenetriaminepentaacetic acid] | could also be demonstrated | substantially improved | reduces | reduces |  |  |  |  |
| O=C(O)CN(CCN(CC(=O)O)CC(=O)O)CC(=O)O [EDTA, ethylenediaminetetraacetic acid] |  | substantially improved | reduces | reduces | dose-related | still some beneficial effect | still not completely abolished | could also be demonstrated |

— patent US20010011082A1, “Parenteral bisphosphonate composition with improved local tolerance” (priority 2000, published 2001)
